Assay results published in ChEMBL document CHEMBL5096229, “A 1,2,3-Triazole Derivative of Quinazoline Exhibits Antitumor Activity by Tethering RNF168 to SQSTM1/P62” (J Med Chem, 2022).
The source made the active and inactive calls. The calls are words filed in the database; no cut-off is given here.

Tests used:
HCT-116 [1] = test: Cytotoxicity against human HCT-116 cells assessed as reduction in cell viability incubated for 72 hrs by MTS assay; type: functional, cell-based; details: HCT-116, 72 h
HeLa [2] = test: Cytotoxicity against human HeLa cells assessed as reduction in cell viability incubated for 72 hrs by MTS assay; type: functional, cell-based
MDA-MB-231 = test: Cytotoxicity against human MDA-MB-231 cells assessed as reduction in cell viability incubated for 72 hrs by MTS assay; type: functional, cell-based; details: MDA-MB-231, 72 h
U2OS [3] = test: Cytotoxicity against human U2OS cells assessed as reduction in cell viability incubated for 72 hrs by MTS assay; type: functional, cell-based
[4] = Cytotoxicity against human MCF-10A cells assessed as reduction in cell viability incubated for 72 hrs by MTS assay; type: toxicity, cell-based
HCT-116 [5] = test: Induction of cell cycle arrest in human HCT-116 cells assessed as accumulation at G0/G1 phase at 2 uM after 24 hrs by propidium iodide-staining based flow cytometry (reference value: 58.01 +/- 1.77%); type: functional
HCT-116 [6] = test: Induction of cell cycle arrest in human HCT-116 cells assessed as accumulation at G2/M phase at 1 uM after 24 hrs by propidium iodide-staining based flow cytometry (reference value: 23.25 +/- 1.38%); type: functional
HCT-116 [7] = test: Induction of cell cycle arrest in human HCT-116 cells assessed as accumulation at G2/M phase at 2 uM after 24 hrs by propidium iodide-staining based flow cytometry (reference value: 23.25 +/- 1.38%); type: functional
U2OS [8] = test: Inhibition of NHEJ-mediated double strand break repair in human U2OS cells pretreated with I-SceI for 36 hrs followed by compound addition and measured after 12 hrs; type: functional, cell-based; details: dose 0.625-2.5 µM, DDE = dose-dependent effect
[9] = Half life in BALB/c mouse at 5 mg/kg; type: ADME, organism-based; details: in vivo
[10] = Half life in BALB/c mouse at 20 mg/kg; type: ADME, organism-based; details: in vivo
[11] = Cmax in BALB/c mouse at 10 mg/kg; type: ADME, organism-based; parameters: dose 10 mg/kg; details: in vivo
[12] = Cmax in BALB/c mouse at 20 mg/kg; type: ADME, organism-based; parameters: dose 20 mg/kg; details: in vivo
[13] = AUCt in BALB/c mouse at 10 mg/kg; type: ADME, organism-based; parameters: dose 10 mg/kg; details: in vivo
[14] = Clearance in BALB/c mouse at 5 mg/kg; type: ADME, organism-based; details: in vivo
[15] = Clearance in BALB/c mouse at 20 mg/kg; type: ADME, organism-based; details: in vivo
[16] = Toxicity in BALB/c mouse assessed as diarrhea at 100 mg/kg, ip after 7 days; type: organism-based; details: in vivo, 168 h, time 7 day
[17] = Toxicity in BALB/c mouse assessed as animal death at less than 50 mg/kg, ip after 7 days; type: organism-based; details: in vivo, 168 h, time 7 day
[18] = Toxicity in BALB/c mouse assessed as diarrhea at less than 50 mg/kg, ip after 7 days; type: organism-based; details: in vivo, 168 h, time 7 day
[19] = Toxicity in BALB/c nude mouse assessed as diarrhea 25 mg/kg, ip after 7 days; type: organism-based; details: in vivo, 168 h, time 7 day
[20] = Toxicity in BALB/c nude mouse assessed as animal death 50 mg/kg, ip after 7 days; type: organism-based; details: in vivo, 168 h, time 7 day
[21] = Toxicity in BALB/c nude mouse assessed as diarrhea 12.5 mg/kg, ip after 7 days; type: organism-based; details: in vivo, 168 h, time 7 day
HCT-116 [22] = test: Antitumor activity against human HCT-116 cells xenografted in ip dosed BALB/c nude mouse assessed as tumor growth inhibition; type: functional, organism-based; details: dose 5.0 mg/kg, DDE = dose-dependent effect
[23] = Toxicity in BALB/c nude mouse assessed as changes in body weight at 5 to 10 mg/kg, ip administered every 3 days upto 22 days; type: organism-based; details: in vivo, 528 h, dose 5-10 mg/kg, time < 22 day
Sequestosome-1 = Sequestosome-1 (Homo sapiens, UniProt Q13501); test: Binding affinity to N-terminal P62 (1 to 335 residues) in human HCT-116 cells lysates; type: subcellular; details: filed as activator
Bacteria [24] = test: Binding affinity to N-terminal His-tagged bacteria P62; details: filed as activator
HCT-116 [25] = test: Induction of P62 to RNF168 protein-protein interaction in human HCT-116 cells lysates by co-immunoprecipitation assay; type: subcellular
[26] = Induction of P62 to RNF168 protein-protein interaction (unknown origin) by MST assay; parameters: species or system Homo sapiens
HCT-116 [27] = test: Induction of P62 to RNF168 protein-protein interaction in human HCT-116 cells lysates chromatin enriched fraction by immunoblotting assay; type: subcellular
Bacteria [28] = test: Induction of bacteria His-tagged P62 to GST-tagged RNF168 protein-protein interaction assessed as decrease in H2A ubiquitination level
HeLa [29] = test: Induction of x-ray sensitivity in human HeLa cells; type: functional, cell-based
[30] = biological target: T1, Androgen receptor (Homo sapiens) (UniProt P10275); test: Inhibition of AR (unknown origin) at 10 uM
T1 sequence (whole entry): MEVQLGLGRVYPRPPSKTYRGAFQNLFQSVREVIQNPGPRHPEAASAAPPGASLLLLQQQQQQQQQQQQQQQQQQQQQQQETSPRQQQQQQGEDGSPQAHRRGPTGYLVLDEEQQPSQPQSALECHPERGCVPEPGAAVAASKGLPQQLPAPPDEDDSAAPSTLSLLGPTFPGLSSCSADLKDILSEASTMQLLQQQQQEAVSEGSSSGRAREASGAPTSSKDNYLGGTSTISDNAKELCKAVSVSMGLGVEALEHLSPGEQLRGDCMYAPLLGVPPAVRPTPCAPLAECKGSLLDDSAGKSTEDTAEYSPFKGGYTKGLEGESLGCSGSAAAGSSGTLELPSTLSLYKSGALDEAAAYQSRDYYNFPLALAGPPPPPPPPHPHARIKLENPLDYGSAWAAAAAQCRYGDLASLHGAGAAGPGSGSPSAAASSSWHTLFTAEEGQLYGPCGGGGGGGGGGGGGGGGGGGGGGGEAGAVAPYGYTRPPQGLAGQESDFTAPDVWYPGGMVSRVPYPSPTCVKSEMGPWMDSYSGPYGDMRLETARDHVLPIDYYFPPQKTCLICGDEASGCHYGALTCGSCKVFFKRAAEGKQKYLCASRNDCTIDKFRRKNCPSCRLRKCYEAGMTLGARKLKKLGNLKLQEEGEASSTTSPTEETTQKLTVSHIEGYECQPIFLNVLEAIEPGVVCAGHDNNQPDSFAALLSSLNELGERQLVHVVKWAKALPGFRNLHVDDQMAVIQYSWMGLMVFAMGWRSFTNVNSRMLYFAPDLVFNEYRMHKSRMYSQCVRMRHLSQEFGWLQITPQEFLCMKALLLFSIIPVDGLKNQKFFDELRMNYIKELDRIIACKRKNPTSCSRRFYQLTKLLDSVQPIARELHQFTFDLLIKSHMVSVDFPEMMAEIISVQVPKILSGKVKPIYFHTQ

Sequence of Sequestosome-1 (Q13501 whole entry, the tested form may be a part): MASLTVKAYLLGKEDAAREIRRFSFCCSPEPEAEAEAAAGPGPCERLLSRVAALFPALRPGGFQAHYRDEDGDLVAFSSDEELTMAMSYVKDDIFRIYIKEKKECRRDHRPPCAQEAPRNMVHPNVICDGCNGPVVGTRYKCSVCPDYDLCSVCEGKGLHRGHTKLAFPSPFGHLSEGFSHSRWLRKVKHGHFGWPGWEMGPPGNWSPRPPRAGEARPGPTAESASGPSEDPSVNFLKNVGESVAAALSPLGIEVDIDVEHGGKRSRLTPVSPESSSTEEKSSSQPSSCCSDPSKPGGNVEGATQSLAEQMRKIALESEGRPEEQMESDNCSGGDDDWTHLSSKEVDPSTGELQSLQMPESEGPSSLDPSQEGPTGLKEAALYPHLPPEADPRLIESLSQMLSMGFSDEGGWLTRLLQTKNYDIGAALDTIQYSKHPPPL

## COc1cc(-n2cc(-c3ccc4nc(N)nc(N)c4c3)nn2)cc(OC)c1OC
HCT-116 [1]
  IC50: 360 nM
HeLa [2]
  IC50: 2480 nM
MDA-MB-231
  IC50: 1170 nM
U2OS [3]
  IC50: 3640 nM
[4]
  IC50 at 72 h: 6980 nM
HCT-116 [5]
  Activity: 52.1%
HCT-116 [6]
  Activity: 29.33%
HCT-116 [7]
  Activity: 30.79%
U2OS [8]
  inhibition: Dde
[9]
  half-life: 16.2 h
[10]
  half-life: 22.1 h
[11]
  Cmax: 39.9 ng/mL
[12]
  Cmax: 52.2 ng/mL
[13]
  AUC(0-t): 408 ng·h/mL
[14]
  clearance: 327 mL/min/kg
[15]
  clearance: 243 mL/min/kg
[16]
  Activity: Toxic
[17]
  Activity: Non-Toxic
[18]
  Activity: Non-Toxic
[19]
  Activity: Toxic
[20]
  Activity: Toxic
[21]
  Activity: Toxic
HCT-116 [22]
  Activity: Dde
[23]
  Activity: Non-Toxic
Sequestosome-1
  Activity: Active
Bacteria [24]
  Activity: Active
HCT-116 [25]
  Activity: Active
[26]
  Kd: 890 nM
HCT-116 [27]
  Activity: Active
Bacteria [28]
  Activity: Active
HeLa [29]
  Activity: Active
[30]
  inhibition: Active
